The record followed here is patent publication US20240207265A1, “TREATMENT OF CNS DISEASES WITH sGC STIMULATORS” (Tisento Therapeutics Inc., priority 2021, published 2024).

Data set [1] in a line: Microdialysis experiments in rat brain. Format: in vivo. To be noted: 3 mg/kg PO as sodium salt, Sprague Dawley rats. The protocol: The goal of the current study was to evaluate levels of sGC stimulators of the invention in the hippocampus and striatum interstitial fluid (ISF), as well as in the circulating plasma after administration to Sprague Dawley male rats. To do so, rats were implanted with microdialysis probes in the hippocampus and striatum and a jugular vein cannula (JVC). After the collection of one pre-dose ISF sample, animals were dosed with sGC stimulator. Samples were collected for 24 hours through a hippocampal and striatal probe as well as serial plasma sampling collected through the JVC after administration. All collected samples were stored at −80° C. waiting for analysis on compound levels in the dialysate.
Five Sprague Dawley rats pre-cannulated with a jugular vein cannula were used for this study. Upon arrival, rats were group-housed in polycarbonate cages (2-3/cage) and acclimated for at least 3 days prior to commencing studies. Animals were housed in a 12 hr light/dark cycle with room temperature maintained at 22+2° C. and approximately 50% humidity and received food and water ad libitum. Rats were tracked via unique identifying numbers. Experiments were conducted in accordance with protocols approved by the Institutional Animal Care and Use Committee of Charles River Laboratories South San Francisco. […]

The next data set deals with cGMP. Briefly: cGMP concentration in rat CSF after single oral dose (CSF biomarker). It counts as in vivo. How it is done:
Rats were administered a single dose of either vehicle or sGC stimulator (1, 3, 10 or 30 mg/kg). One, two and six hours after administration, CSF samples were collected and analyzed to determine cGMP and compound concentrations and plasma samples were collected and analyzed to determine compound concentration. Each rat was sampled one time or multiple times with 3 or more days in between each dosing. The day before the experiment rats were fasted overnight with ad libitum access to water.
On the day of the experiment, compound and cyclic guanosine monophosphate (cGMP) concentrations in rat CSF was determined following oral dosing. Male CD rats implanted with an intracisternal cannula (250-275 g) were used for these studies. Rats were single housed under controlled conditions of temperature (21±1° C.), relative humidity (36±1%) and placed in a 12-hr light-dark cycle (lights on at 6:00 AM and off at 6:00 PM) room at SmartLabs vivarium (21 Erie Street, Cambridge, MA) under protocol MIL-110. Animals were allowed ad libitum access to chow (LabDiet Prolab Isopro RMH 3000, St. Louis, MO) and water. The rats were dosed with 0 mg/kg (vehicle), 1 mg/kg, 3 mg/kg, 10 mg/kg, or 30 mg/kg of a compound of the invention formulated as a suspension in 0.5% methylcellulose, 0.5% Tween80 or as a solution in MilliQ water. […]
Plasma and CSF samples were collected under isoflurane anesthesia as follows: samples of CSF and blood were collected at 1, 2, and 6 hours post-dosing. […] Plasma and CSF was collected and analyzed for the presence of a compound.
The compound of the invention, cGMP and the internal standard were extracted from plasma and CSF by precipitation. Samples were analyzed using liquid chromatography (LC) with tandem mass spectrometric detection (MS/MS) using electrospray ionization. […] CSF cGMP data were graphed using Graphpad Prism, version 8.4.3 and are expressed as means±S.E.M. Data were analyzed with a Mixed-effects analysis followed by Dunnett's multiple comparison test comparing to vehicle-treated rats within timepoint. […]

On to `Cc1cc(F)c(Cc2nc(-c3ncc(F)c(O)n3)cn3ccnc23)cc1F` [Compound I-14, 5-fluoro-2-(8-(2,5-difluoro-4-methylbenzyl)imidazo[1,2-a]pyrazin-6-yl)pyrimidin-4-ol], for which, in data set [1], the “side effects of the treatment” value is listed as “No obvious side effects”. The “concentration of cGMP in rat CSF vs vehicle-treated rats” value with cGMP (1 mg/kg PO as sodium salt, two hours after dosing) is “significantly higher cGMP in CSF”; in the data set with cGMP (3 mg/kg PO as sodium salt, one and two hours after dosing) it was “significantly higher concentrations of cGMP in the CSF”; with cGMP (10 or 30 mg/kg PO as sodium salt, 1, 2 and 6 hours postdose), “significantly higher cGMP in the CSF”.
